US4461901A, “Pyridyl containing 1,2-benzisothiazole-3-amine derivatives” (American Home Products Corporation, priority 1983, dated 1984)
Counter-ions that a name gives are not always drawn. Blank lines part the entries; values can stand above or below the molecule they belong to.

How the values were obtained:
histamine H2 receptor = molecular target: T1, histamine H2 receptor (Cavia porcellus, UniProt P47747); assay: guinea pig heart atrium test: inhibition of histamine-induced positive chronotropic response in the spontaneously beating right atrium; conditions: read-out: pA2 Value (apparent dissociation constant of the H2 antagonist) (converted)
T1 construct: from tissue; host or cells: guinea pig right atrium (isolated, spontaneously beating)
T1 sequence (P47747 whole entry): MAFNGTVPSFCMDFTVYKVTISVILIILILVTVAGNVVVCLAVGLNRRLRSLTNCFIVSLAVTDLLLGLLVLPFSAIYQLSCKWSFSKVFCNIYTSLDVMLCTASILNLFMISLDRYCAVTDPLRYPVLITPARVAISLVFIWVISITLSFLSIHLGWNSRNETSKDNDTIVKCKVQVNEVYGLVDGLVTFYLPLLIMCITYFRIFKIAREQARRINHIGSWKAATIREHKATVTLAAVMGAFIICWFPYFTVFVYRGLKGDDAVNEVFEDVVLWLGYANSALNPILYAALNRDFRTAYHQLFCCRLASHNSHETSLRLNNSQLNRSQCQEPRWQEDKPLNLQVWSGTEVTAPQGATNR
Procedure: The guinea pig heart atrium test is carried out as follows.
A guinea pig right atrium is suspended at 1 g tension (isometric) in the thermostatically controlled (32° C.) tissue bath (10 ml) containing oxygenated (95% O2; 5% CO2) Krebs-Haenseleit buffer (pH 7.4). The tissue is allowed to stabilize over 1 hour. Individual contractions are recorded with a force-displacement transducer through a strain gauge coupler. A control dose-response curve to histamine in the above described tissue bath is obtained after which the tissue is washed 3 times and allowed to re-equilibrate to basal rate. The test compound is added to the tissue bath at the desired final concentration. Thirty minutes after addition of the compound, a fresh histamine dose response curve is again obtained. Then the response to histamine in the presence of antagonist is compared to the histamine control response. This procedure is repeated, using fresh tissues, for each concentration of antagonist tested.

gastric acid secretion = assay: gastric secretion in the rat, modified Shay procedure of pylorus ligation; assay type: in vivo; conditions: 32 mg/kg, interduodenally (i.d.), male Charles River rats, four hours after ligation
Procedure: The procedures for these tests and the results for some of the compounds of the invention are presented at the end of the following examples, which will serve to illustrate the present invention.
The procedure for testing gastric secretion in the rat, a modification of the procedure of Shay et al., Gastroenterology, 26, 906-13 (1954) is carried out as follows.
Male Charles River rats weighing 200-300 grams are deprived of food but not water for 24 hours prior to use. Water is, however, withheld during the experiment. The rats are weighed, anesthetized, and the pylorus ligated according to the method of Shay et al. Treatment or vehicle control is then administered interduodenally (i.d.). Rats are housed 2/cage and sacrificed with CO2 four hours after ligation. The stomachs are removed, rinsed, and contents emptied into a graduated centrifuge tube. The tubes are centrifuged for 20 minutes at 2,000 RPM and the volume of gastric juice recorded. Any samples obviously contaminated by feces, food or hemolysis are eliminated. An aliquot of each is frozen for later analysis of Na^+, K^+ and Cl^- concentration. The pH is measured and 1 ml of gastric juice is titrated with 0.1N NaOH to a pH of 7.0-7.4. Titratable acid output is calculated in microequivalents and the percent inhibition of acid output is calculated as follows: [formula]

[1] = cited from earlier work
H2 histamine receptors = conditions: background statement; cited from earlier work

Kb (histamine H2 receptor): 10 nM
SMILES: Nc1cc(OCCCNC2=NS(=O)(=O)c3ccccc32)ccn1 [Example 3, N-[3-[(2-amino-4-pyridinyl)oxy]propyl]-1,2-benzisothiazol-3-amine 1,1 dioxide, hydrochloride, hemiethanolate]
% Inhibition (of acid output) (gastric acid secretion): 57%

SMILES: CN/C(=N/CCSCc1nc[nH]c1C)NC#N [Cimetidine]
confusional states ([1]; elderly patients): tendency to cause confusional states in elderly patients
anti-androgenic activity ([1]; patients): anti-androgenic activity
duration of action ([1]; patients): short duration of action

Kb (histamine H2 receptor): 10 nM
SMILES: Nc1ncccc1OCCCNC1=NS(=O)(=O)c2ccccc21 [Example 2, N-[3-[(2-amino-3-pyridinyl)oxy]propyl]-1,2-benzisothiazol-3-amine 1,1-dioxide, hydrochloride, hemihydrate]

SMILES: CNC(=NC#N)NCCSCc1csc(N=C(N)N)n1 [tiotidine]
selective H2 antagonist activity versus cimetidine (H2 histamine receptors): greater activity than cimetidine
